# Results: patent US20230389543A1, “SOLID PHASE MATRIX FOR CROP PROTECTION” (North Carolina State University, priority 2020, published 2023)
# Where “and” joins values, the source holds several entries; their conditions need not be identical. Identical values can stand only once.
# Legend:
# [1] = test system: Lesion Nematode; assay: Sweet potato field trial, lesion nematode count at harvest; type: in vivo
# Experimental: (§1) Location: The field trial was conducted on a farm in Woodington, NC. The field was confirmed positive for Meloidogyne enterolobii through NCDA Nematode Assay Lab analysis.
# (§2) Trial set-up: Sweet potatoes (cv. Covington) were planted at 11 inch within row spacing and 42 inch rows. Plots were 4 rows wide by 10 ft long, with 10 feet between plots. Plots were maintained by the grower collaborator using standard agronomic practices. Vigor data, soil samples for mid-season nematode counts, and harvest data was collected. At harvest, the middle two rows of each plot were dug by hand and tubers assessed. Data were analyzed, plotted, and effect of treatment on yield and nematode variables was assessed through mean separation in R (v. 3.6.2).
# (§3) At harvest a soil sample from each plot was collected and 100 cc of soil extracted to determine nematode populations. Three genera of nematode were observed (RKN, stunt and lesion). Counts for the two highest population species, RKN and Lesion at the harvest sampling are reported per 100 g of soil. Population counts of RKN, lesion, and stunt nematode were transformed (log 10(n+1)) prior to analysis to fit assumptions of normality.
# [2] = test system: Root Knot Nematode; assay: Sweet potato field trial, root knot nematode count at harvest; type: in vivo, Meloidogyne enterolobii
# Experimental: as §1, §2, §3
# [3] = test system: Sweet potatoes (cv. Covington); assay: Sweet potato field trial, yield; type: in vivo
# Experimental: as §1, §2
# Formulations and Application rates: Six different wrap and plant formulations and 2 control treatment were tested.
# For each plot the tuber were collect and sorted into 2 groups: #1 grade and cutters/jumbos. In addition, the number of #1 tubers were counted.
smiles,measurement,setting,value
"O=C(NCCc1ncc(C(F)(F)F)cc1Cl)c1ccccc1C(F)(F)F [Treatment 3, Fluopyram]",Average Lesion Population at Harvest,[1]; Table 12,118.75 /100 cc soil
same,"Lesion Population, Average",[1]; average of 4 plots,118.75
same,Average RKN Population at Harvest,[2]; Table 12,12.5 /100 cc soil
same,"RKN Population, Average",[2]; average of 4 plots,12.5
same,Average Total Yield,[3]; Table 12,22.1
same,"Yield #1 Tubers, Average",[3]; average of 4 plots,9.8 kg
same,No. of #1 tubers,[3]; single plot,32 and 36 and 30 and 38
same,Total Yield,[3]; single plot,22.8 kg and 28.05 kg and 20.9 kg and 16.8 kg
same,Yield of #1,[3]; single plot,9.35 kg and 12.15 kg and 9.75 kg and 8.1 kg
same,Yield of Jumbo & Canners,[3]; single plot,13.45 kg and 15.9 kg and 11.15 kg and 8.7 kg
same,Yield #1 Tubers,"[3]; single plot, Table 10, listed as Grower Standard",8.1 kg and 9.4 kg and 12.2 kg and 9.8 kg
